Experimental data: ChEMBL document CHEMBL1139006, “Synthesis and in vitro antibiotic activity of 16-membered 9-O-arylalkyloxime macrolides” (2006)
Values after ≈ are worked out from the molar mass of the structure shown.

Legend:
Format in all cases: functional
Staphylococcus aureus [1] = test: Antibacterial activity against Staphylococcus aureus ATCC 6538p
Haemophilus influenzae [2] = test: Antibacterial activity against Haemophilus influenzae ATCC 49766
Streptococcus pneumoniae [3] = test: Antibacterial activity against macrolide resistant Streptococcus pneumoniae ATCC 700677
Enterococcus faecalis = test: Antibacterial activity against Enterococcus faecalis ATCC 51575
Streptococcus pneumoniae [4] = test: Antibacterial activity against macrolide resistant Streptococcus pneumoniae ATCC 700906
Staphylococcus aureus [5] = test: Antibacterial activity against Staphylococcus aureus ATCC 29213
Streptococcus pneumoniae [6] = test: Antibacterial activity against macrolide resistant Streptococcus pneumoniae ATCC 700676
Staphylococcus aureus [7] = test: Antibacterial activity against macrolide resistant Staphylococcus aureus ATCC BAA-39
Streptococcus pneumoniae [8] = test: Antibacterial activity against Streptococcus pneumoniae ATCC 700671
Streptococcus pneumoniae [9] = test: Antibacterial activity against Streptococcus pneumoniae ATCC 6301
Staphylococcus aureus [10] = test: Antibacterial activity against macrolide resistant Staphylococcus aureus ATCC BAA-44
Haemophilus influenzae [11] = test: Antibacterial activity against Haemophilus influenzae ATCC 9006
Streptococcus pneumoniae [12] = test: Antibacterial activity against Streptococcus pneumoniae ATCC 49619
Streptococcus pneumoniae [13] = test: Antibacterial activity against macrolide resistant Streptococcus pneumoniae ATCC 700905
[14] = system: Staphylococcus epidermidis; test: Antibacterial activity against Staphylococcus epidermidis ATCC 12228
Staphylococcus aureus [15] = test: Antibacterial activity against macrolide resistant Staphylococcus aureus ATCC 141541
Staphylococcus aureus [16] = test: Antibacterial activity against macrolide resistant Staphylococcus aureus ATCC 33591
Haemophilus influenzae [17] = test: Antibacterial activity against Haemophilus influenzae EH003
Haemophilus influenzae [18] = test: Antibacterial activity against Haemophilus influenzae EH002
Haemophilus influenzae [19] = test: Antibacterial activity against Haemophilus influenzae EH001

Row | SMILES | MIC (Staphylococcus aureus [1]) | MIC (Haemophilus influenzae [2]) | MIC (Streptococcus pneumoniae [3]) | MIC (Enterococcus faecalis) | MIC (Streptococcus pneumoniae [4]) | MIC (Staphylococcus aureus [5]) | MIC (Streptococcus pneumoniae [6]) | MIC (Staphylococcus aureus [7]) | MIC (Streptococcus pneumoniae [8]) | MIC (Streptococcus pneumoniae [9]) | MIC (Staphylococcus aureus [10]) | MIC (Haemophilus influenzae [11]) | MIC (Streptococcus pneumoniae [12]) | MIC (Streptococcus pneumoniae [13]) | MIC [14] | MIC (Staphylococcus aureus [15]) | MIC (Staphylococcus aureus [16]) | MIC (Haemophilus influenzae [17]) | MIC (Haemophilus influenzae [18]) | MIC (Haemophilus influenzae [19])
1 | CC[C@H]1OC(=O)C[C@@H](O)[C@H](C)[C@@H](O[C@@H]2O[C@H](C)[C@@H](O)[C@H](N(C)C)[C@H]2O)[C@@H](CC=O)C[C@@H](C)C(=N/OCCCCc2cnc3ccccc3c2)/C=C/C(C)=C/C1CO (stereo partly drawn) | 0.025 µg/mL (≈ 0.0314 µM) | 6.25 µg/mL (≈ 7.85 µM) | 0.025 µg/mL (≈ 0.0314 µM) | > 12.5 µg/mL | > 12.5 µg/mL | 0.2 µg/mL (≈ 0.251 µM) | 0.025 µg/mL (≈ 0.0314 µM) | > 12.5 µg/mL | 0.025 µg/mL (≈ 0.0314 µM) | 0.025 µg/mL (≈ 0.0314 µM) | > 12.5 µg/mL | 6.25 µg/mL (≈ 7.85 µM) | 0.049 µg/mL (≈ 0.0616 µM) | 0.025 µg/mL (≈ 0.0314 µM) | 0.2 µg/mL (≈ 0.251 µM) | 0.2 µg/mL (≈ 0.251 µM) | > 12.5 µg/mL | – | – | –
2 | CC[C@H]1OC(=O)C[C@@H](O)[C@H](C)[C@@H](O[C@@H]2O[C@H](C)[C@@H](O)[C@H](N(C)C)[C@H]2O)[C@@H](CCN2CC(C)CC(C)C2)C[C@@H](C)C(=N/OCCCc2ccc3ncccc3c2)/C=C/C(C)=C/C1CO (stereo partly drawn) | – | 3.12 µg/mL (≈ 3.55 µM) | > 12.5 µg/mL | – | > 12.5 µg/mL | – | 0.025 µg/mL (≈ 0.0284 µM) | – | 0.049 µg/mL (≈ 0.0557 µM) | 0.025 µg/mL (≈ 0.0284 µM) | – | 1.56 µg/mL (≈ 1.77 µM) | 0.025 µg/mL (≈ 0.0284 µM) | 0.025 µg/mL (≈ 0.0284 µM) | – | – | – | 1.56 µg/mL (≈ 1.77 µM) | 3.12 µg/mL (≈ 3.55 µM) | 3.12 µg/mL (≈ 3.55 µM)
3 | CC[C@H]1OC(=O)C[C@@H](O)[C@H](C)[C@@H](O[C@@H]2O[C@H](C)[C@@H](O)[C@H](N(C)C)[C@H]2O)[C@@H](C=O)C[C@@H](C)C(=N\OCCCc2ccc3ncccc3c2)/C=C/C(C)=C/C1CO (stereo partly drawn) | – | 3.12 µg/mL (≈ 4.06 µM) | > 12.5 µg/mL | – | > 12.5 µg/mL | – | 0.025 µg/mL (≈ 0.0326 µM) | – | 0.098 µg/mL (≈ 0.128 µM) | 0.025 µg/mL (≈ 0.0326 µM) | – | 1.56 µg/mL (≈ 2.03 µM) | 0.025 µg/mL (≈ 0.0326 µM) | 0.025 µg/mL (≈ 0.0326 µM) | – | – | – | 3.12 µg/mL (≈ 4.06 µM) | 6.25 µg/mL (≈ 8.14 µM) | 3.12 µg/mL (≈ 4.06 µM)
4 | CC[C@H]1OC(=O)C[C@@H](O)[C@H](C)[C@@H](O[C@@H]2O[C@H](C)[C@@H](O)[C@H](N(C)C)[C@@H]2O)[C@@H](CCN2CC(C)CC(C)C2)C[C@@H](C)C(=N/O)/C=C/C(C)=C/C1CO (stereo partly drawn) | 3.12 µg/mL (≈ 4.39 µM) | – | > 12.5 µg/mL | > 12.5 µg/mL | > 12.5 µg/mL | 12.5 µg/mL (≈ 17.6 µM) | 6.25 µg/mL (≈ 8.8 µM) | > 12.5 µg/mL | 1.56 µg/mL (≈ 2.2 µM) | 0.78 µg/mL (≈ 1.1 µM) | > 12.5 µg/mL | – | 1.56 µg/mL (≈ 2.2 µM) | 6.25 µg/mL (≈ 8.8 µM) | > 12.5 µg/mL | > 12.5 µg/mL | > 12.5 µg/mL | – | – | –
5 | CC[C@H]1OC(=O)C[C@@H](O)[C@H](C)[C@@H](O[C@@H]2O[C@H](C)[C@@H](O)[C@H](N(C)C)[C@H]2O)[C@@H](CC=O)C[C@@H](C)C(=N\OCCCOc2ccc3ncccc3c2)/C=C/C(C)=C/C1CO (stereo partly drawn) | 0.025 µg/mL (≈ 0.0313 µM) | 6.25 µg/mL (≈ 7.83 µM) | 0.2 µg/mL (≈ 0.251 µM) | > 12.5 µg/mL | > 12.5 µg/mL | 0.098 µg/mL (≈ 0.123 µM) | 0.025 µg/mL (≈ 0.0313 µM) | > 12.5 µg/mL | 0.025 µg/mL (≈ 0.0313 µM) | 0.025 µg/mL (≈ 0.0313 µM) | > 12.5 µg/mL | 6.25 µg/mL (≈ 7.83 µM) | 0.01 µg/mL (≈ 0.0125 µM) | 0.025 µg/mL (≈ 0.0313 µM) | 0.098 µg/mL (≈ 0.123 µM) | 0.2 µg/mL (≈ 0.251 µM) | > 12.5 µg/mL | – | – | –
6 | CC[C@H]1OC(=O)C[C@@H](O)[C@H](C)[C@@H](O[C@@H]2O[C@H](C)[C@@H](O)[C@H](N(C)C)[C@@H]2O)[C@@H](CCN2CC(C)CC(C)C2)C[C@@H](C)C(=O)/C=C/C(C)=C/C1CO (stereo partly drawn) | 0.39 µg/mL (≈ 0.561 µM) | – | > 12.5 µg/mL | > 12.5 µg/mL | > 12.5 µg/mL | 1.56 µg/mL (≈ 2.24 µM) | 1.56 µg/mL (≈ 2.24 µM) | > 12.5 µg/mL | 0.78 µg/mL (≈ 1.12 µM) | 0.39 µg/mL (≈ 0.561 µM) | > 12.5 µg/mL | – | 0.78 µg/mL (≈ 1.12 µM) | 1.56 µg/mL (≈ 2.24 µM) | 0.78 µg/mL (≈ 1.12 µM) | 1.56 µg/mL (≈ 2.24 µM) | > 12.5 µg/mL | – | – | –
